**Q.** What does the source list for `O=[N+]([O-])c1ccc(Oc2ccc([N+](=O)[O-])cc2)cc1`?
**A.** solubility (mole fraction) (in 1,4-dioxane, 283.15 K): 0.026; solubility (mole fraction) (in 1,4-dioxane, 288.15 K): 0.0325; solubility (mole fraction) (in 1,4-dioxane, 293.15 K): 0.0409; solubility (mole fraction) (in 1,4-dioxane, 298.15 K): 0.0489; solubility (mole fraction) (in 1,4-dioxane, 303.15 K): 0.0575; solubility (mole fraction) (in 1,4-dioxane, 308.15 K): 0.0674; solubility (mole fraction) (in 1,4-dioxane, 313.15 K): 0.08; solubility (mole fraction) (in 1,4-dioxane, 318.15 K): 0.0922; solubility (mole fraction) (in 1,4-dioxane, 323.15 K): 0.11; solubility (mole fraction) (in 1-methoxy-2-propanol, 283.15 K): 0.00539; solubility (mole fraction) (in 1-methoxy-2-propanol, 288.15 K): 0.00657; solubility (mole fraction) (in 1-methoxy-2-propanol, 293.15 K): 0.0071; solubility (mole fraction) (in 1-methoxy-2-propanol, 298.15 K): 0.00864; solubility (mole fraction) (in 1-methoxy-2-propanol, 303.15 K): 0.00979; solubility (mole fraction) (in 1-methoxy-2-propanol, 308.15 K): 0.0114; solubility (mole fraction) (in 1-methoxy-2-propanol, 313.15 K): 0.0137; solubility (mole fraction) (in 1-methoxy-2-propanol, 318.15 K): 0.0162; solubility (mole fraction) (in 1-methoxy-2-propanol, 323.15 K): 0.0198; solubility (mole fraction) (in 2-methoxyethanol, 283.15 K): 0.00657; solubility (mole fraction) (in 2-methoxyethanol, 288.15 K): 0.00753; solubility (mole fraction) (in 2-methoxyethanol, 293.15 K): 0.00823; solubility (mole fraction) (in 2-methoxyethanol, 298.15 K): 0.0103; solubility (mole fraction) (in 2-methoxyethanol, 303.15 K): 0.0116; solubility (mole fraction) (in 2-methoxyethanol, 308.15 K): 0.0131; solubility (mole fraction) (in 2-methoxyethanol, 313.15 K): 0.0158; solubility (mole fraction) (in 2-methoxyethanol, 318.15 K): 0.0182; solubility (mole fraction) (in 2-methoxyethanol, 323.15 K): 0.022; solubility (mole fraction) (in DMAc, 283.15 K): 0.0802; solubility (mole fraction) (in DMAc, 288.15 K): 0.0866; solubility (mole fraction) (in DMAc, 293.15 K): 0.0913; solubility (mole fraction) (in DMAc, 298.15 K): 0.103; solubility (mole fraction) (in DMAc, 303.15 K): 0.115; solubility (mole fraction) (in DMAc, 308.15 K): 0.126; solubility (mole fraction) (in DMAc, 313.15 K): 0.144; solubility (mole fraction) (in DMAc, 318.15 K): 0.164; solubility (mole fraction) (in DMAc, 323.15 K): 0.184; solubility (mole fraction) (in DMF, 283.15 K): 0.0524; solubility (mole fraction) (in DMF, 288.15 K): 0.0612; solubility (mole fraction) (in DMF, 293.15 K): 0.0663; solubility (mole fraction) (in DMF, 298.15 K): 0.077; solubility (mole fraction) (in DMF, 303.15 K): 0.0883; solubility (mole fraction) (in DMF, 308.15 K): 0.0933; solubility (mole fraction) (in DMF, 313.15 K): 0.111; solubility (mole fraction) (in DMF, 318.15 K): 0.126; solubility (mole fraction) (in DMF, 323.15 K): 0.152; solubility (mole fraction) (in acetic acid, 283.15 K): 0.00292; solubility (mole fraction) (in acetic acid, 288.15 K): 0.00347; solubility (mole fraction) (in acetic acid, 293.15 K): 0.00366; solubility (mole fraction) (in acetic acid, 298.15 K): 0.00469; solubility (mole fraction) (in acetic acid, 303.15 K): 0.00525; solubility (mole fraction) (in acetic acid, 308.15 K): 0.00612; solubility (mole fraction) (in acetic acid, 313.15 K): 0.0072; solubility (mole fraction) (in acetic acid, 318.15 K): 0.00835; solubility (mole fraction) (in acetic acid, 323.15 K): 0.0103; solubility (mole fraction) (in acetone, 283.15 K): 0.0155; solubility (mole fraction) (in acetone, 288.15 K): 0.0173; solubility (mole fraction) (in acetone, 293.15 K): 0.0197; solubility (mole fraction) (in acetone, 298.15 K): 0.0246; solubility (mole fraction) (in acetone, 303.15 K): 0.0281; solubility (mole fraction) (in acetone, 308.15 K): 0.0333; solubility (mole fraction) (in acetone, 313.15 K): 0.0401; solubility (mole fraction) (in acetone, 318.15 K): 0.0484; solubility (mole fraction) (in acetone, 323.15 K): 0.0571; solubility (mole fraction) (in acetonitrile, 283.15 K): 0.00446; solubility (mole fraction) (in acetonitrile, 288.15 K): 0.00587; solubility (mole fraction) (in acetonitrile, 293.15 K): 0.00682; solubility (mole fraction) (in acetonitrile, 298.15 K): 0.00926; solubility (mole fraction) (in acetonitrile, 303.15 K): 0.0104; solubility (mole fraction) (in acetonitrile, 308.15 K): 0.0129; solubility (mole fraction) (in acetonitrile, 313.15 K): 0.0158; solubility (mole fraction) (in acetonitrile, 318.15 K): 0.0195; solubility (mole fraction) (in acetonitrile, 323.15 K): 0.0241; solubility (mole fraction) (in anisole, 283.15 K): 0.0243; solubility (mole fraction) (in anisole, 288.15 K): 0.0293; solubility (mole fraction) (in anisole, 293.15 K): 0.0339; solubility (mole fraction) (in anisole, 298.15 K): 0.0395; solubility (mole fraction) (in anisole, 303.15 K): 0.0444; solubility (mole fraction) (in anisole, 308.15 K): 0.0547; solubility (mole fraction) (in anisole, 313.15 K): 0.0647; solubility (mole fraction) (in anisole, 318.15 K): 0.0746; solubility (mole fraction) (in anisole, 323.15 K): 0.0893; solubility (mole fraction) (in ethanol, 283.15 K): 0.00035; solubility (mole fraction) (in ethanol, 288.15 K): 0.000369; solubility (mole fraction) (in ethanol, 293.15 K): 0.000418; solubility (mole fraction) (in ethanol, 298.15 K): 0.000531; solubility (mole fraction) (in ethanol, 303.15 K): 0.000631; solubility (mole fraction) (in ethanol, 308.15 K): 0.000807; solubility (mole fraction) (in ethanol, 313.15 K): 0.00102; solubility (mole fraction) (in ethanol, 318.15 K): 0.00124; solubility (mole fraction) (in ethanol, 323.15 K): 0.0015; solubility (mole fraction) (in ethyl acetate, 283.15 K): 0.0133; solubility (mole fraction) (in ethyl acetate, 288.15 K): 0.015; solubility (mole fraction) (in ethyl acetate, 293.15 K): 0.0172; solubility (mole fraction) (in ethyl acetate, 298.15 K): 0.0206; solubility (mole fraction) (in ethyl acetate, 303.15 K): 0.0228; solubility (mole fraction) (in ethyl acetate, 308.15 K): 0.0266; solubility (mole fraction) (in ethyl acetate, 313.15 K): 0.0316; solubility (mole fraction) (in ethyl acetate, 318.15 K): 0.036; solubility (mole fraction) (in ethyl acetate, 323.15 K): 0.0422; solubility (mole fraction) (in isopropanol, 283.15 K): 0.000139; solubility (mole fraction) (in isopropanol, 288.15 K): 0.000199; solubility (mole fraction) (in isopropanol, 293.15 K): 0.000222; solubility (mole fraction) (in isopropanol, 298.15 K): 0.000322; solubility (mole fraction) (in isopropanol, 303.15 K): 0.000394; solubility (mole fraction) (in isopropanol, 308.15 K): 0.000538; solubility (mole fraction) (in isopropanol, 313.15 K): 0.000779; solubility (mole fraction) (in isopropanol, 318.15 K): 0.000996; solubility (mole fraction) (in isopropanol, 323.15 K): 0.00136; solubility (mole fraction) (in methanol, 283.15 K): 0.000259; solubility (mole fraction) (in methanol, 288.15 K): 0.000329; solubility (mole fraction) (in methanol, 293.15 K): 0.000376; solubility (mole fraction) (in methanol, 298.15 K): 0.000525; solubility (mole fraction) (in methanol, 303.15 K): 0.000637; solubility (mole fraction) (in methanol, 308.15 K): 0.000804; solubility (mole fraction) (in methanol, 313.15 K): 0.00095; solubility (mole fraction) (in methanol, 318.15 K): 0.00115; solubility (mole fraction) (in methanol, 323.15 K): 0.00145; solubility (mole fraction) (in n-butanol, 283.15 K): 0.000203; solubility (mole fraction) (in n-butanol, 288.15 K): 0.000337; solubility (mole fraction) (in n-butanol, 293.15 K): 0.00049; solubility (mole fraction) (in n-butanol, 298.15 K): 0.000661; solubility (mole fraction) (in n-butanol, 303.15 K): 0.000826; solubility (mole fraction) (in n-butanol, 308.15 K): 0.00111; solubility (mole fraction) (in n-butanol, 313.15 K): 0.00144; solubility (mole fraction) (in n-butanol, 318.15 K): 0.00183; solubility (mole fraction) (in n-butanol, 323.15 K): 0.00241
